Measurements published in ChEMBL document CHEMBL1629693, “Intracellular concentrations of posaconazole in different compartments of peripheral blood” (Antimicrob Agents Chemother, 2010).

What was measured:
[1] = Drug uptake in human PMNC assessed as increase in intracellular compound concentration by radiometric assay relative to control; format: ADME, cell-based
[2] = Ratio of intracellular to extracellular drug uptake in alveolar macrophages of New Zealand white rabbit infected with Mycobacterium bovis at 1 ug/ml; format: ADME, cell-based, Oryctolagus cuniculus; details: macrophage
[3] = Ratio of intracellular to extracellular drug uptake in RBC of New Zealand white rabbit infected with Mycobacterium bovis at 1 ug/ml; format: ADME, cell-based, Oryctolagus cuniculus; details: erythrocyte
[4] = Ratio of intracellular to extracellular drug uptake in alveolar macrophages of New Zealand white rabbit infected with Mycobacterium bovis at 1 ug/ml in presence of 5% serum; format: ADME, cell-based, Oryctolagus cuniculus; details: macrophage
[5] = Ratio of intracellular to extracellular drug uptake in alveolar macrophages of New Zealand white rabbit infected with Mycobacterium bovis at 1 ug/ml in presence of 100% serum; format: ADME, cell-based, Oryctolagus cuniculus; details: macrophage
[6] = Ratio of cellular uptake in alveolar macrophages to plasma of healthy human at 14 doses of […], twice daily; format: ADME, organism-based
[7] = Ratio of cellular uptake in alveolar macrophages to plasma of healthy human
Plasma = test: Drug uptake in plasma of patient with hematological malignancies at 200 mg administered 3 to 4 times a day measured by liquid chromatography-tandem mass spectroscopy; details: human, in vivo
[8] = Cellular uptake in RBC of patient with hematological malignancies at 200 mg administered 3 to 4 times a day measured by liquid chromatography-tandem mass spectroscopy; details: human, in vivo
PBMC [9] = test: Cellular uptake in PBMC of patient with hematological malignancies at 200 mg administered 3 to 4 times a day measured by liquid chromatography-tandem mass spectroscopy; details: human, in vivo
[10] = Cellular uptake in PMNC of patient with hematological malignancies at 200 mg administered 3 to 4 times a day measured by liquid chromatography-tandem mass spectroscopy; details: human, in vivo
[11] = Ratio of intracellular to extracellular cellular uptake in RBC of patient with hematological malignancies at 200 mg administered 3 to 4 times a day measured by liquid chromatography-tandem mass spectroscopy; details: human, in vivo
PBMC [12] = test: Ratio of intracellular to extracellular cellular uptake in PBMC of patient with hematological malignancies at 200 mg administered 3 to 4 times a day measured by liquid chromatography-tandem mass spectroscopy; details: human, in vivo
[13] = Ratio of intracellular to extracellular cellular uptake in PMNC of patient with hematological malignancies at 200 mg administered 3 to 4 times a day measured by liquid chromatography-tandem mass spectroscopy; details: human, in vivo

Which “fold change (FC)” value [1] does the source give for `OC(Cn1cncn1)(Cn1cncn1)c1ccc(F)cc1F` [FLUCONAZOLE] here?
The value was 2.2.

Which Ratio [2] does the source give for `CCC(C)n1ncn(-c2ccc(N3CCN(c4ccc(OCC5COC(Cn6cncn6)(c6ccc(Cl)cc6Cl)O5)cc4)CC3)cc2)c1=O` (stereo not given) [ITRACONAZOLE] here?
The Ratio was 87.9.

And the Ratio [3]?
The Ratio was 90.4.

What about the Ratio [4] of the same molecule?
The Ratio was 18.

What about the Ratio [5] of the same molecule?
Its Ratio is 3.

What about the Kp [6] of the same molecule?
Its Kp is 44.3.

And the Kp [7]?
Its Kp is 27.3.

Which Drug uptake (Plasma) does the source give for `CC[C@@H]([C@H](C)O)n1ncn(-c2ccc(N3CCN(c4ccc(OC[C@@H]5CO[C@@](Cn6cncn6)(c6ccc(F)cc6F)C5)cc4)CC3)cc2)c1=O` [POSACONAZOLE] here?
The Drug uptake was 603.2 ng/mL.

And the Drug uptake [8]?
Its Drug uptake is 50.8 ng/mL.

What about the Drug uptake (PBMC [9]) of the same molecule?
The Drug uptake was 12764 ng/mL.

What about the Drug uptake [10] of the same molecule?
The Drug uptake was 4031 ng/mL.

And the Ratio [11]?
The Ratio was 0.09.

And the Ratio (PBMC [12])?
The Ratio was 22.5.

What about the Ratio [13] of the same molecule?
Its Ratio is 7.66.

With `C[C@@H](c1ncncc1F)[C@](O)(Cn1cncn1)c1ccc(F)cc1F` [VORICONAZOLE] as the molecule, how does the “fold change (FC)” value [1] read?
Its value is 8.5.
